Measured values: publication PMC10426190 (Breast Cancer Research : BCR, 2023)

Tested on: E2-induced (ER target) genes in MCF7
Assay: Gene expression analysis by RNA-sequencing in MCF7 with E2 stimulation
Type: cell-based, human
Details: MCF7; 1 nM E2 ± 1 μM compound, 24 h
Experimental: MCF7 were cultured in hormone deprivation media (with 10% charcoal-stripped FBS) for at least 3 days before assay. Trypsinized cells were seeded in a 12-well plate, stimulated with 1 nM β-estradiol (E2), and treated with/without 1 μM compounds for 24 h. Total RNA was extracted using the TRIzol reagent according to the manufacturer’s protocol. RNA purity and quantification were evaluated using the NanoDrop 2000 spectrophotometer (Thermo Scientific, USA). RNA integrity was assessed using the Agilent 2100 Bioanalyzer (Agilent Technologies, Santa Clara, CA, USA). Then the libraries were constructed using TruSeq Stranded mRNA LT Sample Prep Kit (Illumina, San Diego, CA, USA) according to the manufacturer’s instructions. The transcriptome sequencing and analysis were conducted by OE Biotech Co., Ltd. (Shanghai, China). The libraries were sequenced on an Illumina HiSeq X Ten platform and 150 bp paired-end reads were generated. […] Raw data (raw reads) of FASTq format were firstly processed using Trimmomatic and the low-quality reads were removed to obtain the clean reads. […] The clean reads were mapped to the human genome (GRCh38) using HISAT2 [27]. FPKM [28] of each gene was calculated using Cufflinks, and the read counts of each gene were obtained by HTSeqcount. Differential expression analysis was performed using the DESeq (2012) R package.
MCF7 with hormone-deprived pre-treatment were administrated ER ligands or not present with 1 nM E2 stimulation for 24 h incubation in a 12-well plate. Total mRNA was isolated from treated cells and sequenced on an Illumina HiSeq X Ten platform. FPKM of each gene was calculated using Cufflinks and Differential expression genes analysis by using the DESeq (2012) R package. […] T47D EFM-19 and HCC1500 cells were grown in RPMI media supplemented with 10% charcoal-stripped FBS for 14 days and then treated with ER antagonist (1 μM) or DMSO in the presence E2 (1nM) stimulation for 24 h before RNA isolation and gene expression analysis as described in methods. […] The uteruses were harvested 24 h after the final doses and stained by toluidine blue. Endometrial height was assessed from the basement membrane to the luminal border (scale bar in green lines: 200 μm), Arrows indicate the uterine epithelium (e).

CC/C(=C(\c1ccc(O)cc1)c1ccc(OCCN(C)C)cc1)c1ccccc1 [4-OH-tamoxifen] showed a KIF18B expression of 3.84 FPKM, a KIFC1 expression of 15.12 FPKM and a KLK11 expression of 4.66 FPKM. It also gave a KNL1 expression of 4.05 FPKM, a KNTC1 expression of 6.86 FPKM and an LHX2 expression of 1.62 FPKM. It also gave an LIG1 expression of 23.58 FPKM, an LMNB1 expression of 53.86 FPKM and an MAD2L1 expression of 7.76 FPKM. It also gave an MCM2 expression of 31.78 FPKM, an MCM3 expression of 34.54 FPKM and an MCM4 expression of 49.01 FPKM. For the same molecule, the MCM5 expression was 13.27 FPKM, the MCM6 expression was 24.55 FPKM and the MCM7 expression was 84.30 FPKM. For the same molecule, the MCM10 expression was 3.64 FPKM, the MELK expression was 11.34 FPKM and the MKI67 expression was 21.80 FPKM. For the same molecule, the MYB expression was 5.81 FPKM, the MYBL1 expression was 1.32 FPKM and the MYBL2 expression was 46.03 FPKM. The NCAPG2 expression was 19.25 FPKM, the NCAPG expression was 7.03 FPKM and the NPY1R expression was 8.44 FPKM. The ORC1 expression was 3.13 FPKM, the ORC6 expression was 7.62 FPKM and the PAQR4 expression was 12.98 FPKM. The PBK expression was 16.47 FPKM, the PCLAF expression was 33.01 FPKM and the PCNA expression was 59.31 FPKM. It also gave a PDZK1 expression of 3.59 FPKM, a PGR expression of 1.93 FPKM and a PKIB expression of 26.05 FPKM. It also gave a PKMYT1 expression of 12.25 FPKM, a POLA1 expression of 3.09 FPKM and a POLA2 expression of 5.57 FPKM. The POLD1 expression was 11.86 FPKM, the POLE2 expression was 2.61 FPKM and the POLE expression was 12.83 FPKM. It also gave a POLQ expression of 2.74 FPKM, a PRIM1 expression of 10.94 FPKM and a PRSS23 expression of 68.31 FPKM. It also gave an RAB31 expression of 11.89 FPKM, an RAD51AP1 expression of 5.44 FPKM and an RAD51 expression of 4.02 FPKM. The RAD54L expression was 4.39 FPKM, the RAMP3 expression was 3.44 FPKM and the RAPGEFL1 expression was 6.63 FPKM. The RBL1 expression was 2.35 FPKM, the RECQL4 expression was 13.74 FPKM and the RERG expression was 3.48 FPKM. For the same molecule, the RET expression was 4.49 FPKM, the RFC2 expression was 18.64 FPKM and the RFC3 expression was 4.62 FPKM. The RFC4 expression was 14.31 FPKM, the RNASEH2A expression was 30.81 FPKM and the RRM1 expression was 20.41 FPKM. It also gave an RRM2 expression of 33.29 FPKM, an RUBCNL expression of 1.01 FPKM and an SDK2 expression of 0.95 FPKM. For the same molecule, the SFXN2 expression was 8.23 FPKM, the SHCBP1 expression was 3.43 FPKM and the SKA3 expression was 5.48 FPKM. It also gave an SLC6A14 expression of 24.37 FPKM, an SMC2 expression of 7.20 FPKM and an SPC24 expression of 7.06 FPKM. The SPC25 expression was 7.65 FPKM, the STC2 expression was 84.89 FPKM and the TACC3 expression was 21.35 FPKM. The TCF19 expression was 8.96 FPKM, the TCOF1 expression was 10.86 FPKM and the TGM2 expression was 3.69 FPKM. For the same molecule, the TICRR expression was 4.37 FPKM, the TK1 expression was 57.95 FPKM and the TMEM26 expression was 2.14 FPKM. For the same molecule, the TMEM164 expression was 10.65 FPKM, the TONSL expression was 9.87 FPKM and the TOP2A expression was 30.91 FPKM. It also gave a TP73 expression of 1.32 FPKM, a TRIP13 expression of 8.37 FPKM and a TUBA1B expression of 555.45 FPKM. The TUBB expression was 291.22 FPKM, the TYMS expression was 31.45 FPKM and the UBE2C expression was 31.96 FPKM. It also gave a UBE2T expression of 41.94 FPKM, a UHRF1 expression of 9.20 FPKM and a UNG expression of 32.49 FPKM. For the same molecule, the WDHD1 expression was 4.95 FPKM, the WDR62 expression was 5.88 FPKM and the WDR76 expression was 1.87 FPKM. For the same molecule, the XRCC2 expression was 3.37 FPKM, the XRCC3 expression was 8.89 FPKM and the ZGRF1 expression was 1.82 FPKM. The ZNF367 expression was 5.84 FPKM.
